Activity calls are given as the source filed them. No cut-off for these calls is given here.
Experiments:
Format in all cases: cell-based
[1] = tested on: iNKT; experiment: Effect on human iNKT MAD11 cells stimulation assessed as increase in IL-13 production pretreated with HeLa cells for overnight prior to iNKT MAD11 cells addition and measured after 24 hrs by ELISA
[2] = molecular target: T1, Antigen-presenting glycoprotein CD1d (Homo sapiens) (UniProt P15813); experiment: Binding affinity to human CD1d expressed in human HeLa cells assessed as increase in IFNgamma production at 10 uM to 10^-4 uM incubated overnight prior to iNKT MAD11 cells addition to CD1d-compound mixture and measured after 6 hrs by ELISA
T1 sequence (whole entry): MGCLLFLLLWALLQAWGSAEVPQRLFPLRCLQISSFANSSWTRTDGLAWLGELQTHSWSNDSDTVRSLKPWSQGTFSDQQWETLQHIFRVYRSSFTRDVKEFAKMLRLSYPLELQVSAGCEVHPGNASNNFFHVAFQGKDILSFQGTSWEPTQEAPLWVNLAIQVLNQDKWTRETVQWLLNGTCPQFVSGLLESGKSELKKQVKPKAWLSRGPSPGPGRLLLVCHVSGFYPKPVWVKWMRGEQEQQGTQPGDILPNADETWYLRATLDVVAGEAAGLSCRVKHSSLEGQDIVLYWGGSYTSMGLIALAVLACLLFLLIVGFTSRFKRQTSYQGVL

[3] = tested on: iNKT; experiment: Effect on human iNKT MAD11 cells stimulation assessed as increase in IFNgamma production pretreated with HeLa cells for overnight prior to iNKT MAD11 cells addition and measured after 6 hrs by ELISA
[4] = molecular target: T1, Antigen-presenting glycoprotein CD1d (Homo sapiens); experiment: Binding affinity to human CD1d expressed in human HeLa cells assessed as increase in IL-13 production at 10 uM to 10^-4 uM incubated overnight prior to iNKT MAD11 cells addition to CD1d-compound mixture and measured after 24 hrs by ELISA

Activity [2] | Activity [4] | SMILES | Activity [1] | Activity [3]
Active | Active | CCCCCCCCCCCCCCCCCCCCCCCCCC(=O)N[C@@H](CO[C@H]1O[C@H](CO)[C@H](O)[C@H](O)[C@H]1O)[C@H](O)[C@H](O)CCCCCCCCCCCCCC [RGI-7000] | Non-Toxic | Non-Toxic
Active | Active | CCCCCCCCCCCCCCCCCCCCCCCCCC(=O)N[C@@H](CO[C@H]1O[C@H](CO)[C@H](O)[C@H](O)[C@H]1O)C(F)(F)[C@H](O)CCCCCCCCCCCCCC | Non-Toxic | Non-Toxic
Active | Active | CCCCCCCCCCCCCCCCCCCCCCCCCC(=O)N[C@@H](CO[C@H]1O[C@H](CO)[C@H](O)[C@H](O)[C@H]1O)C(F)(F)C(F)(F)CCCCCCCCCCCCCC | Non-Toxic | Non-Toxic
Active | Active | CCCCCCCCCCCCCCCCCCCCCCCCCC(=O)N[C@@H](CO[C@H]1O[C@H](CO)[C@H](O)[C@H](O)[C@H]1O)C(F)(F)[C@@H](O)CCCCCCCCCCCCCC | Non-Toxic | Non-Toxic

From ChEMBL document CHEMBL4364255, “3,4-Dideoxy-3,3,4,4-tetrafluoro- and 4-OH epimeric 3-deoxy-3,3-difluoro-α-GalCer analogues: Synthesis and biological evaluation on human iNKT cells stimulation” (Eur J Med Chem, 2019)
